Assay [1] addresses T1, AEA-DA lipid probe targets in Neuro2a cells (Mus musculus, UniProt O08749).
T1 sequence (O08749 36-509): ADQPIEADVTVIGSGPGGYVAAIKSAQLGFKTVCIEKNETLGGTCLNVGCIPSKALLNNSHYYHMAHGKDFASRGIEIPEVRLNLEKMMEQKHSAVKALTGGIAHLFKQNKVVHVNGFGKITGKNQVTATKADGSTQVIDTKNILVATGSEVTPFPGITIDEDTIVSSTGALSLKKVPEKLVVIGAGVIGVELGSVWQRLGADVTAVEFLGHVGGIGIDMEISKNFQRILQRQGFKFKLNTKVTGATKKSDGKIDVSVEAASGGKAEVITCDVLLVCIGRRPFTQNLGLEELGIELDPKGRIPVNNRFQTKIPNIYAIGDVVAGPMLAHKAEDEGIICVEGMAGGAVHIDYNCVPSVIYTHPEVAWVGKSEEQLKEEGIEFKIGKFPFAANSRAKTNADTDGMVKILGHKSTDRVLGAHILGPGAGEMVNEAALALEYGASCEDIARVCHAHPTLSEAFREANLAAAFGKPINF

The target in assay [2] is AEA-DA lipid probe targets in Neuro2a cells (Mus musculus, UniProt P70699).
AEA-DA lipid probe targets in Neuro2a cells (Mus musculus, UniProt P70699), sequence (P70699 70-953): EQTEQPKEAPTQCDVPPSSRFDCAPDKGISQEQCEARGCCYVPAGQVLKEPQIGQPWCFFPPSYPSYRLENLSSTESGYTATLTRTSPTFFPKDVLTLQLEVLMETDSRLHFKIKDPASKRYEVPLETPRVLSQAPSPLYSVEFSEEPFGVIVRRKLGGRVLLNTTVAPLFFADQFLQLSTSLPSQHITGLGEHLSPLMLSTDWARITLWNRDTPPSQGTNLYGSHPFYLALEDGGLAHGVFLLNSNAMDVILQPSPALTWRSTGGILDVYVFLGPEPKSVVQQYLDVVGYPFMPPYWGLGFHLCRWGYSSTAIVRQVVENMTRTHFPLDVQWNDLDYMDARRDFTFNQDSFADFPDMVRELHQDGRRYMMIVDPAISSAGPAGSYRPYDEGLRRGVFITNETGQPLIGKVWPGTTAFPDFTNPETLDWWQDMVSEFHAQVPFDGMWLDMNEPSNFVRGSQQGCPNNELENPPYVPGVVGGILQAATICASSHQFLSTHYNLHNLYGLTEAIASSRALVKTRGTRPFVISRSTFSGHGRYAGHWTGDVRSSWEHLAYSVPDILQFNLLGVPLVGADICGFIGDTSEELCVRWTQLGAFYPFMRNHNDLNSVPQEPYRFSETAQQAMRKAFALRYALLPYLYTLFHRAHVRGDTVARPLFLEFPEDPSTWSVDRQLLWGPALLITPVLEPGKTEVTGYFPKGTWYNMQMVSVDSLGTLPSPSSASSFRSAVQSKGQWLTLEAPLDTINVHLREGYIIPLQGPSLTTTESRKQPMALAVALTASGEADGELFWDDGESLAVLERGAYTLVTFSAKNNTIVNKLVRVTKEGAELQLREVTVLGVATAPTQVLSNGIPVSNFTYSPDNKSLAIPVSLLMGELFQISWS
The target in assay [3] is T2, AEA-DA lipid probe targets in Neuro2a cells (Mus musculus, UniProt Q61425).
T2 sequence (Q61425 13-314): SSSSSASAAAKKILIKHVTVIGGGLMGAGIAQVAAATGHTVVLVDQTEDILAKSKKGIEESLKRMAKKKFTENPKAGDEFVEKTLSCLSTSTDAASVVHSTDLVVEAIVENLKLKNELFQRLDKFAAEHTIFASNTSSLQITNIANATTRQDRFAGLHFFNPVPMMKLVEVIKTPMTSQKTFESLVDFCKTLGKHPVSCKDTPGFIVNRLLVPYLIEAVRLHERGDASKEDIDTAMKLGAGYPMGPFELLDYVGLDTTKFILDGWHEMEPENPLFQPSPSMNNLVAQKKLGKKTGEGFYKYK

In assay [4] the target is T3, AEA-DA lipid probe targets in Neuro2a cells (Mus musculus, UniProt Q62465).
T3 sequence (Q62465 1-406): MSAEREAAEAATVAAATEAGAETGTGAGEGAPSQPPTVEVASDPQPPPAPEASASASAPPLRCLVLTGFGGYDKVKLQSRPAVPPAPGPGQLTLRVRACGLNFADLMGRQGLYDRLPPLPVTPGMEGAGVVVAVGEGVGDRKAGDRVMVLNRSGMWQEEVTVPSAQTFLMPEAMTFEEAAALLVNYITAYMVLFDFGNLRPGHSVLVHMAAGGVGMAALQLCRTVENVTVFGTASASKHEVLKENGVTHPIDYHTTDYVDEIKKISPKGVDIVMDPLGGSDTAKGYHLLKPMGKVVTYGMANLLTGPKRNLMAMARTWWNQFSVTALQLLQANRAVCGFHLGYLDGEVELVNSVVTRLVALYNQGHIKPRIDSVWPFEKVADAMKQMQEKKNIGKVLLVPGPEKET
The settings on record: for SILAC ratio, VAT1 (Q99536): Neuro2a cells, AEA-DA probe.

Assay [5] has as its target T4, AEA-DA lipid probe targets in Neuro2a cells (Mus musculus, UniProt Q8K411).
T4 sequence (Q8K411 16-1036): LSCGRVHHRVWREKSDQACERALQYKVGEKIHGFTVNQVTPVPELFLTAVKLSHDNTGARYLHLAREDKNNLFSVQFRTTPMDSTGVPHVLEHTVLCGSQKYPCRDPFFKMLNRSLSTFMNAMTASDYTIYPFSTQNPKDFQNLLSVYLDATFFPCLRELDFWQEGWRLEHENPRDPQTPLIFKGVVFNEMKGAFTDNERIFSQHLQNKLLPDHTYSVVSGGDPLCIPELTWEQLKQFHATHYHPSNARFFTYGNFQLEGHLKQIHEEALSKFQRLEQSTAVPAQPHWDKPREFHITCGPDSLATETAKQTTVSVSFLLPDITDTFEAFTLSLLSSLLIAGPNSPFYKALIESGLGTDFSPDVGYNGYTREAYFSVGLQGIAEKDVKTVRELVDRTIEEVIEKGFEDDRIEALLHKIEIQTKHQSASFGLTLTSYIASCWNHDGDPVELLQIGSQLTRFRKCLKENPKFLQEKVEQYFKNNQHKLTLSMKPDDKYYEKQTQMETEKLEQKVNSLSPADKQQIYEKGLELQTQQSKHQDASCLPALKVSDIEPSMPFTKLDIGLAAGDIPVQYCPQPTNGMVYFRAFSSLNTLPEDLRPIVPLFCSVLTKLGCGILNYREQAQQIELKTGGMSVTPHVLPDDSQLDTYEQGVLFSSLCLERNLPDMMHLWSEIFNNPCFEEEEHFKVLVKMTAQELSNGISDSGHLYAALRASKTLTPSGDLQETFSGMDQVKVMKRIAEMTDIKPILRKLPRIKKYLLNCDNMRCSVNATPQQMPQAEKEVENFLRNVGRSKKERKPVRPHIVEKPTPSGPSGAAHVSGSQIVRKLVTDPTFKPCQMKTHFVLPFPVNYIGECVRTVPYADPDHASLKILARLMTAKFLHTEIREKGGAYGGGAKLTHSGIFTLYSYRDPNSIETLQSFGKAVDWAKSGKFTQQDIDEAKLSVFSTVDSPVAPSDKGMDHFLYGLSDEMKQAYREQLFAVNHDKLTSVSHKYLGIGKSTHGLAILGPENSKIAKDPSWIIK

Assay [6] addresses T5, AEA-DA lipid probe targets in Neuro2a cells (Mus musculus, UniProt Q9CPQ8).
T5 sequence (Q9CPQ8 1-103): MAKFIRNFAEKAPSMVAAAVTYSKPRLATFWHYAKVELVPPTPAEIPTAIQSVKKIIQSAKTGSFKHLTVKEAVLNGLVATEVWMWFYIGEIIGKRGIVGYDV

Assay [7] concerns the target T6, AEA-DA lipid probe targets in Neuro2a cells (Mus musculus, UniProt Q505D7).
T6 sequence (Q505D7 1-179): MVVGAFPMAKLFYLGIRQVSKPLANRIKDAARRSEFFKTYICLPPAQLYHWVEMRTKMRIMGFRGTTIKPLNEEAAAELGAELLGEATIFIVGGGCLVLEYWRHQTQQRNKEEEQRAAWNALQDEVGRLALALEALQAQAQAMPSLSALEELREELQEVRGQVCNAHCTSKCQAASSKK
Particulars: for SILAC ratio, OPA3 (Q505D7): Neuro2a cells, AEA-DA probe.

Read-outs that look alike come from different tables or passages of the source.

On to `CCCCC/C=C\C/C=C\C/C=C\C/C=C\CCCC(=O)NCCO` [AEA, anandamide, reference compound], for which the “SILAC ratio Dld” value in assay [1] (competitor 200 μM) came out at 1.1. Further, in assay [2] (competitor 200 μM), the “SILAC ratio Gaa” value is reported as 1.4. In assay [3] (competitor 200 μM), the “SILAC ratio Hadh” value was determined as 1.2. Further, in assay [4] (competitor 200 μM), the “SILAC ratio, VAT1 (Q99536)” value was found to be 1.6 and the “SILAC ratio Vat1” value turned out to be 1.6. Further, the “SILAC ratio, Pitrm1” value in assay [5] (competitor 200 μM) is 2.1. In assay [6] (competitor 200 μM), the “SILAC ratio Atp5l” value was found to be 1.3.

Regarding `O=C(/C=C/c1cccnc1)NCCCCC1CCN(C(=O)c2ccccc2)CC1` [FK-866, reference compound], the “SILAC ratio Dld” value in assay [1] (competitor 25 μM) stood at 1.1. For the same compound, the “SILAC ratio Gaa” value in assay [2] (competitor 25 μM) amounted to 1.1. In addition, in assay [7] (competitor 25 μM), the “SILAC ratio, OPA3 (Q505D7)” value was found to be 1.1 and the “SILAC ratio, Opa3” value turned out to be 1.1. Further, the “SILAC ratio Hadh” value in assay [3] (competitor 25 μM) came to 1.2. For the same compound, in assay [4] (competitor 25 μM), the “SILAC ratio, VAT1 (Q99536)” value was 1.9 and the “SILAC ratio Vat1” value was determined as 1.9. In assay [5] (competitor 25 μM), the “SILAC ratio, Pitrm1” value was 1.4. For the same compound, the “SILAC ratio Atp5l” value in assay [6] (competitor 25 μM) was 1.1.

As for `CN1CCN(C(=O)c2c(-c3ccccc3)c3cc([N+](=O)[O-])ccc3n2C)CC1` [KML110, (1-Methyl-5-nitro-3-phenyl-1H-indol-2-yl)(4-methylpiperazin-1-yl)methanone], the “SILAC ratio Dld” value in assay [1] (competitor 25 μM) came to 1.3. The “SILAC ratio Gaa” value in assay [2] (competitor 25 μM) came out at 1.6. Moreover, the “SILAC ratio, Opa3” value in assay [7] (competitor 25 μM) is 1.6. The “SILAC ratio Hadh” value in assay [3] (competitor 25 μM) is 1.2. For the same compound, the “SILAC ratio Vat1” value in assay [4] (competitor 25 μM) was 1.4. Moreover, the “SILAC ratio, Pitrm1” value in assay [5] (competitor 25 μM) was 2.0. Besides, in assay [6] (competitor 25 μM), the “SILAC ratio Atp5l” value is listed as 1.2.

For `CN1CCN(C(=O)c2[nH]c3ccc([N+](=O)[O-])cc3c2-c2ccccc2)CC1` [MJN228, (4-Methylpiperazin-1-yl)(5-nitro-3-phenyl-1H-indol-2-yl)methanone], the “SILAC ratio Dld” value in assay [1] (competitor 10 μM) stood at 1.2; in assay [1] (competitor 25 μM), 1.2; in assay [1] (competitor 50 μM), 1.2; in assay [1] (competitor 100 μM), 1.1. In addition, the “SILAC ratio Gaa” value in assay [2] (competitor 10 μM) was found to be 1.0; in assay [2] (competitor 25 μM), 1.2; in assay [2] (competitor 50 μM), 1.4; in assay [2] (competitor 100 μM), 1.2. Also, the “SILAC ratio, OPA3 (Q505D7)” value in assay [7] (competitor 25 μM) was 1.4. The “SILAC ratio, Opa3” value is recorded as 1.4 in assay [7] (competitor 10 μM), 1.4 in assay [7] (competitor 25 μM), 1.5 in assay [7] (competitor 50 μM) and 1.9 in assay [7] (competitor 100 μM). For the same compound, the “SILAC ratio Hadh” value is on record as 1.3 in assay [3] (competitor 10 μM), 1.3 in assay [3] (competitor 25 μM), 1.1 in assay [3] (competitor 50 μM) and 1.3 in assay [3] (competitor 100 μM). The “SILAC ratio Vat1” value is 1.2 in assay [4] (competitor 10 μM), 1.3 in assay [4] (competitor 25 μM), 1.0 in assay [4] (competitor 50 μM) and 1.2 in assay [4] (competitor 100 μM). The “SILAC ratio, Pitrm1” value in assay [5] (competitor 10 μM) was 1.6; in assay [5] (competitor 25 μM), 1.9; in assay [5] (competitor 50 μM) it was 2.2; in assay [5] (competitor 100 μM) it was 3.4. The “SILAC ratio Atp5l” value in assay [6] (competitor 10 μM) is recorded as 1.5; in assay [6] (competitor 25 μM), 1.5; in assay [6] (competitor 50 μM), 1.4; in assay [6] (competitor 100 μM), 1.3.

Turning to `C=CCN(C)CCCCCCOc1ccc(C(=O)c2ccc(Br)cc2)c(F)c1` [Ro 48-8071, reference compound], in assay [1] (competitor 25 μM), the “SILAC ratio Dld” value is 0.8. Further, the “SILAC ratio Gaa” value in assay [2] (competitor 25 μM) was 0.5. Also, in assay [7] (competitor 25 μM), the “SILAC ratio, OPA3 (Q505D7)” value worked out at 1.4 and the “SILAC ratio, Opa3” value is given as 1.4. Besides, in assay [3] (competitor 25 μM), the “SILAC ratio Hadh” value turned out to be 0.8. In assay [4] (competitor 25 μM), the “SILAC ratio, VAT1 (Q99536)” value was determined as 1.2 and the “SILAC ratio Vat1” value amounted to 1.2. Further, the “SILAC ratio, Pitrm1” value in assay [5] (competitor 25 μM) is reported as 1.0. The “SILAC ratio Atp5l” value in assay [6] (competitor 25 μM) is given as 1.0.
